PubChem BioAssay AID624167 (Sanford-Burnham Center for Chemical Genomics, 2012)
Activity calls are given as the source filed them.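 Rule for the calls: active = mean IC50 for reducing PEG3 promoter reporter signal at or below a set limit, with IC50 above the limit in both counter screens; inactive = the rest, including counter screen hits.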

Key:
PEG-3 [1] = biological target: PEG-3 (UniProt Q6IN02); experiment: inhibition of PEG-3 promoter-driven reporter – cell-based, HeLa, luciferase, CREF/GAPDH counter-screen panel, dose response (AID 624167); settings: HeLa PEG-Prom luciferase reporter, overnight, CREF/GAPDH counter-screens, mean of runs
PEG-3 [2] = experiment: as above; settings: HeLa PEG-Prom luciferase reporter, overnight, CREF/GAPDH counter-screens
[3] = run 1, dose range 1, individual replicate IC50 per panel
[4] = run 2, dose range 1, individual replicate IC50 per panel

Sequence of PEG-3 (UniProt Q6IN02) (Q6IN02 whole entry, looked up): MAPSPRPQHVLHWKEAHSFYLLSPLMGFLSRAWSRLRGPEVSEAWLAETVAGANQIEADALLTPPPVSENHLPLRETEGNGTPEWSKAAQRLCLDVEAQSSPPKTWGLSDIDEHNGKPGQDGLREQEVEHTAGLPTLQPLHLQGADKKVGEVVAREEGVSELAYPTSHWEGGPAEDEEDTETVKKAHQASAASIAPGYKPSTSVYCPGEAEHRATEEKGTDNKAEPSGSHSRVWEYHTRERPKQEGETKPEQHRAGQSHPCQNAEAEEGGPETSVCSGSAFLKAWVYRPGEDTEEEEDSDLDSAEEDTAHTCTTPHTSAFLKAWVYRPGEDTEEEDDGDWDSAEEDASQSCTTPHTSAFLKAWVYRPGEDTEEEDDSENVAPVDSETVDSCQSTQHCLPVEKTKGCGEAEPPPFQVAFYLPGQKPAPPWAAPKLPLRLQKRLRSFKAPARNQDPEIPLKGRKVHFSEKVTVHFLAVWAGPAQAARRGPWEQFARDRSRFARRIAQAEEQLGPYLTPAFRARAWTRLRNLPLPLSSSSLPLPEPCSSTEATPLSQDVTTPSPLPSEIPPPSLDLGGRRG

Row | Structure (SMILES) | IC50 (PEG-3 [1]) | IC50 (PEG-3 [2]; [3]) | IC50 (PEG-3 [2]; [4])
1 | Cc1cccc(N2CCN(C(=O)C3CCN(c4ncnc5c4nc4n5CCCCC4)CC3)CC2)c1C | inactive | 30.2 µM | 18.3 µM
2 | CC1CCCCN1CCNC(=O)c1ccc2c(=O)n(Cc3ccc(Cl)cc3)c(=S)[nH]c2c1 (centres undefined) | inactive | 19.6 µM | 25.3 µM
3 | O=C(c1ccccc1)N(C(=O)c1ccccc1)c1ncnc2c1C(c1ccccc1)c1c(ccc3ccccc13)O2 (centres undefined) | inactive | 4.36 µM | > 100 µM
4 | O=c1[nH]c(=O)n(C2OC(CO)C(O)C2O)cc1F (centres undefined) | 14.3 µM | 25.6 µM | 3.07 µM
5 | C=CCN=C1NN=C(c2cc(C)n(CC=C)c2C)CS1 | 17.4 µM | 11.5 µM | 23.3 µM
6 | CCC1(c2ccccc2)NC(=O)N(CC(=O)Nc2cc(S(=O)(=O)N3CCCCCC3)ccc2OC)C1=O (centres undefined) | 13.7 µM | 13.9 µM | 13.5 µM
7 | O=C(CCN1C(=O)/C(=C/c2ccc(F)cc2)SC1=S)N[C@@H](CO)Cc1ccccc1 | inactive | 12.1 µM | > 100 µM
8 | CCN(CCN(C)C)C(=O)C1CCN(S(=O)(=O)c2c(C)noc2/C=C/c2ccccc2F)CC1 | inactive | 28.2 µM | 21.4 µM
9 | COc1ccc(CN2CCN(C(=O)c3cc(-c4cccnc4)nc4ccc(Cl)cc34)CC2)c(OC)c1OC | inactive | 52.4 µM | 16.4 µM
10 | CC(=O)c1cccc(NC(=O)c2cccc3c(-c4cccnc4)coc23)c1 | inactive | 25.6 µM | > 100 µM
11 | Cc1ccc2[nH]c3c(c2c1)CCCC3NC(=O)CCl (centres undefined) | inactive | 23.3 µM | 49.8 µM
12 | CCc1cccc(CC)c1NC(=S)NCCc1c(C)[nH]c2ccc(C)cc12 | inactive | 29.6 µM | 13.8 µM
13 | OCCNCc1cc(Br)ccc1OCc1ccc(Cl)cc1Cl | 17.4 µM | 16.9 µM | 17.9 µM
14 | O=C(Nc1ccccc1N1CCOCC1)c1cc(-c2ccncc2)nc2ccccc12 | inactive | 33 µM | 78.3 µM
15 | Cc1cc(C)c2c(N)c3ccccc3nc2n1 | inactive | 18.5 µM | > 100 µM
16 | O=C(Nc1ccccc1)c1nc[nH]c1C(=O)NCCCNC(=O)c1[nH]cnc1C(=O)Nc1ccccc1 | inactive | 17.2 µM | > 100 µM
17 | COC(=O)c1ccc(OCC2c3cc(OC)c(OC)cc3CCN2C(=O)c2ccco2)cc1 (centres undefined) | 19.4 µM | 25.2 µM | 13.6 µM

Row | Structure (SMILES) | IC50 (PEG-3 [1]) | IC50 (PEG-3 [2]; [3]) | IC50 (PEG-3 [2]; [4])
18 | COc1ccccc1CN(C)C(=O)c1cc(-c2cccs2)nc2ccccc12 | 13.5 µM | 14.3 µM | 12.7 µM
19 | CN1CCN(c2ccc(NC(=O)N3CCc4ccccc43)cc2)CC1 | inactive | 15 µM | 38.8 µM
20 | Cc1cccc(CN2C(=O)/C(=C\c3ccc(C(=O)NCCN4CCOCC4)cc3)Sc3ccccc32)c1 | inactive | 18.2 µM | 22.1 µM
21 | COC(=O)c1c(NC(=O)c2ccc([N+](=O)[O-])o2)sc2c1CCN(C(C)C)C2 | 15.5 µM | 19.2 µM | 11.8 µM
22 | CN(C)CCNC(=O)/C(=C/c1ccc(-c2ccc(Cl)cc2)o1)NC(=O)c1ccccc1 | 13.9 µM | 18.1 µM | 9.62 µM
23 | O=C(C[n+]1ccc(-c2cc(C(=O)Nc3cccc(C(F)(F)F)c3)c3ccccc3n2)cc1)c1cccc([N+](=O)[O-])c1 | 18.6 µM | 23.4 µM | 13.8 µM
24 | COc1cc(NC(=O)c2cccc(C)c2)ccc1NC(=O)c1cc2ccccc2o1 | 19.3 µM | 12.9 µM | 25.6 µM
25 | COc1ccc(-c2cc(C(F)F)n3ncc(C(=O)n4ccnc4C)c3n2)cc1 | 12.5 µM | 18.3 µM | 6.84 µM
26 | CCN(C(=O)CSc1nc2n[nH]c(C)c2c(=N)n1-c1ccc(Cl)c(C)c1)c1cccc(C)c1 | 20 µM | 19.1 µM | 20.8 µM
27 | CC(=O)Nc1ccc(S(=O)(=O)N(Cc2ccco2)Cc2cc3ccccc3[nH]c2=O)cc1 | inactive | 18.5 µM | 22.4 µM
28 | CCCC(=O)NC(c1cccc([N+](=O)[O-])c1)c1ccc2cccnc2c1O (centres undefined) | 11.1 µM | 3.15 µM | 19 µM
29 | CN(C)S(=O)(=O)c1cccc(NC(=O)CSc2cccc3cccnc23)c1 | inactive | 23.7 µM | 19.6 µM
30 | Cc1cc(C)c(CN2CCN(CCCn3cnc(C(=O)Nc4ccc(C)c(C)c4)n3)CC2)c(C)c1 | 16.1 µM | 19 µM | 13.1 µM
31 | COc1cccc(/C=C2/Sc3ccc(C(=O)NCCCN4CCCC4)cc3NC2=O)c1 | 17.1 µM | 21.4 µM | 12.8 µM
32 | COc1cc(C(=O)/C=C/c2cccnc2)c([N+](=O)[O-])cc1OC | 18.3 µM | 19.3 µM | 17.3 µM
33 | O=C(Nc1ccccc1)NN(C(=O)CCl)c1ccccc1 | 16.7 µM | 20.1 µM | 13.3 µM
